Values after ≈ are worked out from the molar mass of the structure shown.
Key:
Enterobacter cloacae 963 = experiment: minimal inhibitory concentration, in vitro antibacterial activity; format: cell-based; details: 37° C., 20 hours
Experimental: (§1) The in vitro antibacterial activities of typical examples of the present compounds [I] were evaluated in terms of the minimal inhibitory concentration defined as the lowest concentration of the compound preventing the bacterial growth. The Gram-positive bacteria used as test microorganisms included Bacillus subtilis, Staphylococcus aureus and Streptococcus faecalis, and the Gram-negative bacteria used as test microorganisms included Escherichia coli, Enterobacter cloacae, Klebsiella pneumoniae, Proteus vulgaris, Pseudomonas aeruginosa, Serratia marcescens and Salmonella enteritidis. The minimal inhibitory concentration (cultured at 37° C. for 20 hours) was determined according to the standard method prescribed by the Japan Society of Chemotherapy (CHEMOTHERAPY, Vol. 29, No. 1, p. 76, 1981). The following compounds were used as typical examples of the present compounds [I]. At the end of the chemical name of each compound, its tentative designation is given in Parentheses.
(§2) For purposes of comparison, the in vitro antibacterial activities of ofloxacin, OPC-7241 and compound α were evaluated according to the same method as described above and the test results thus obtained are also shown in Table 1.

[1] = tested on: Escherichia coli NIHJ JC-2; experiment: as above; format: cell-based; details: NIHJJC2, 37° C., 20 hours
Experimental: as §1, §2

[2] = tested on: Klebsiella pneumoniae PCI 602; experiment: as above; format: cell-based; details: PCI602, 37° C., 20 hours
Experimental: as §1, §2

[3] = tested on: Streptococcus faecalis AHU 1085; experiment: as above; format: cell-based; details: Enterococcus faecalis, AHU1085, 37° C., 20 hours
Experimental: as §1, §2

[4] = tested on: Staphylococcus aureus FDA 209P JC-1; experiment: as above; format: cell-based; details: FDA209P, 37° C., 20 hours
Experimental: as §1, §2

Escherichia coli CI-304 = experiment: as above; format: cell-based; details: CI304, 37° C., 20 hours
Experimental: as §1, §2

[5] = tested on: Proteus vulgaris ATCC 13315; experiment: as above; format: cell-based; details: ATCC13315, 37° C., 20 hours
Experimental: as §1, §2

[6] = tested on: Bacillus subtilis ATCC 6633; experiment: as above; format: cell-based; details: ATCC6633, 37° C., 20 hours
Experimental: as §1, §2

[7] = tested on: Pseudomonas aeruginosa NCTC 10490; experiment: as above; format: cell-based; details: NCTC10490, 37° C., 20 hours
Experimental: as §1, §2

[8] = tested on: Salmonella enteritidis G14; experiment: as above; format: cell-based; details: Salmonella enterica, 37° C., 20 hours
Experimental: as §1, §2

[9] = tested on: Serratia marcescens IAM 1184; experiment: as above; format: cell-based; details: IAM1184, 37° C., 20 hours
Experimental: as §1, §2

[10] = enteral absorbability, serum concentration after oral administration to mice; format: in vivo; details: mouse, 50 mg/kg orally, fasted male ICR mice; for concentration at 0.5 h: 30 min.
Experimental: Using male ICR mice fasted overnight (weighing 20±1 g), the enteral absorbability of some typical examples of the present compounds [I] was tested. This test was carried out by administering 50 mg/kg of each test compound orally to mice and determining its serum concentration 30 minutes, 1 hour, 2 hours and 4 hours after administration. Five mice were used for each test point. At each test point, whole blood was collected from the mice by cardiac puncture and used to prepare serum samples. Concentrations of the test compounds in serum samples were determined by the paper disc method using Escherichia coli CI-304 as the test microorganism.
For purposes of comparison, the enteral absorbability of ofloxacin and OPC-7241 was tested in the same manner as described above and the results thus obtained are also shown in Table 2.

| MIC (Enterobacter cloacae 963) [µg/mL] | MIC [1] [µg/mL] | MIC [2] [µg/mL] | MIC [3] [µg/mL] | MIC [4] [µg/mL] | MIC (Escherichia coli CI-304) [µg/mL] | MIC [5] [µg/mL] | MIC [6] [µg/mL] | MIC [7] [µg/mL] | MIC [8] [µg/mL] | MIC [9] [µg/mL] | concentration at 0.5 h [10] [ng/mL] | concentration at 1 h [10] [ng/mL] | concentration at 2 h [10] [ng/mL] | concentration at 4 h [10] [ng/mL] | Compound |
| --- | --- | --- | --- | --- | --- | --- | --- | --- | --- | --- | --- | --- | --- | --- | --- |
| 0.78 (≈ 1.94 µM) | 0.39 (≈ 0.972 µM) | 0.1 (≈ 0.249 µM) | 3.13 (≈ 7.8 µM) | 0.78 (≈ 1.94 µM) | 0.2 (≈ 0.498 µM) |  | 0.39 (≈ 0.972 µM) | 1.56 (≈ 3.89 µM) |  |  |  |  |  |  | CCCN1CCN(c2c(F)cc3c(=O)c(C(=O)O)cn4c3c2C(=O)CC4C)CC1 (stereo not shown) [Compound 8, 9-Fluoro-5-methyl-8-(4-n-propyl-1-piperazinyl)-6,7-dihydro-1,7-dioxo-1H, 5H-benzo[ij]quinolizine-2-carboxylic acid] |
| 0.39 (≈ 1.01 µM) | 0.39 (≈ 1.01 µM) | 0.1 (≈ 0.258 µM) | 3.13 (≈ 8.08 µM) | 0.39 (≈ 1.01 µM) | 0.1 (≈ 0.258 µM) |  | 0.39 (≈ 1.01 µM) | 3.13 (≈ 8.08 µM) | 0.78 (≈ 2.01 µM) |  | 15000 | 11700 | 6700 | 4300 | CC1CC(=O)c2c(N3CCNC(C)(C)C3)c(F)cc3c(=O)c(C(=O)O)cn1c23 (stereo not shown) [Compound 15, 9-Fluoro-5-methyl-8-(3,3-dimethyl-1-piperazinyl) -6,7-dihydro-1,7-dioxo-1H, 5H-benzo[ij]quinolizine-2-carboxylic acid] |
| 0.78 (≈ 1.87 µM) | 0.78 (≈ 1.87 µM) | 0.1 (≈ 0.239 µM) |  |  | 0.2 (≈ 0.479 µM) |  |  |  |  |  |  |  |  |  | CC1CN(c2c(Cl)cc3c(=O)c(C(=O)O)cn4c3c2C(=O)CC4C)CC(C)N1C (stereo not shown) [Compound 18, 9-Chloro-5-methyl-8-(3,4,5-trimethyl-1-piperazinyl) -6,7-dihydro-1,7-dioxo-1H, 5H-benzo[ij]quinolizine-2-carboxylic acid] |
| 0.2 (≈ 0.538 µM) | 0.39 (≈ 1.05 µM) | 0.1 (≈ 0.269 µM) |  | 0.2 (≈ 0.538 µM) | 0.2 (≈ 0.538 µM) | 0.1 (≈ 0.269 µM) | 0.2 (≈ 0.538 µM) | 1.56 (≈ 4.2 µM) | 1.56 (≈ 4.2 µM) | 1.56 (≈ 4.2 µM) | 15500 | 14900 | 9300 | 5400 | CC1CN(c2c(F)cc3c(=O)c(C(=O)O)cn4c3c2C=CC4C)CCN1C (stereo not shown) [Compound 25, 9-Fluoro-5-methyl-8-(3,4-dimethyl-1-piperazinyl) -1-oxo-1H, 5H-benzo[ij]quinolizine-2-carboxylic acid] |
| 0.39 (≈ 1.05 µM) | 0.39 (≈ 1.05 µM) | 0.2 (≈ 0.538 µM) |  |  | 0.2 (≈ 0.538 µM) | 0.1 (≈ 0.269 µM) |  | 1.56 (≈ 4.2 µM) | 1.56 (≈ 4.2 µM) |  |  |  |  |  | CC1C=Cc2c(N3CCNC(C)(C)C3)c(F)cc3c(=O)c(C(=O)O)cn1c23 (stereo not shown) [Compound 26, 9-Fluoro-5-methyl-8-(3,3-dimethyl-1-piperazinyl) -1-oxo-1H, 5H-benzo[ij]quinolizine-2-carboxylic acid] |
| 0.39 (≈ 1.01 µM) |  | 0.2 (≈ 0.519 µM) |  | 0.78 (≈ 2.02 µM) | 0.2 (≈ 0.519 µM) | 0.1 (≈ 0.259 µM) |  |  | 0.78 (≈ 2.02 µM) | 1.56 (≈ 4.05 µM) |  |  |  |  | CC1CN(c2c(F)cc3c(=O)c(C(=O)O)cn4c3c2C=CC4C)CC(C)N1C (stereo not shown) [Compound 27, 9-Fluoro-5-methyl-8-(3,4,5-trimethyl-1-piperazinyl) -1-oxo-1H, 5H-benzo[ij]quinolizine-2-carboxylic acid] |
| 0.78 (≈ 2.1 µM) | 0.39 (≈ 1.05 µM) | 0.2 (≈ 0.538 µM) |  |  | 0.2 (≈ 0.538 µM) |  |  |  |  |  |  |  |  |  | CCC1C=Cc2c(N3CCNC(C)C3)c(F)cc3c(=O)c(C(=O)O)cn1c23 (stereo not shown) [Compound 32, 9-Fluoro-5-ethyl-8-(3-methyl-1-piperazinyl) -1-oxo-1H, 5H-benzo[ij]quinolizine-2-carboxylic acid] |

Second part, the compound before the results:

| Compound | MIC (Enterobacter cloacae 963) [µg/mL] | MIC [1] [µg/mL] | MIC [2] [µg/mL] | MIC [3] [µg/mL] | MIC [4] [µg/mL] | MIC (Escherichia coli CI-304) [µg/mL] | MIC [5] [µg/mL] | MIC [6] [µg/mL] | MIC [7] [µg/mL] | MIC [8] [µg/mL] | MIC [9] [µg/mL] | concentration at 0.5 h [10] [ng/mL] | concentration at 1 h [10] [ng/mL] | concentration at 2 h [10] [ng/mL] | concentration at 4 h [10] [ng/mL] |
| --- | --- | --- | --- | --- | --- | --- | --- | --- | --- | --- | --- | --- | --- | --- | --- |
| CC1CC(=O)c2c(N3CCNCC3)c(F)cc3c(=O)c(C(=O)O)cn1c23 (stereo not shown) [Compound 1, 9-Fluoro-5-methyl-8-(1-piperazinyl)-6,7-dihydro-1,7-dioxo-1H,5H-benzo[ij]quinolizine-2-carboxylic acid] | 0.78 (≈ 2.17 µM) | 0.39 (≈ 1.09 µM) | 0.1 (≈ 0.278 µM) | 1.56 (≈ 4.34 µM) | 0.2 (≈ 0.557 µM) | 0.1 (≈ 0.278 µM) | 0.2 (≈ 0.557 µM) | 0.39 (≈ 1.09 µM) | 1.56 (≈ 4.34 µM) | 0.39 (≈ 1.09 µM) | 3.13 (≈ 8.71 µM) |  |  |  |  |
| CC1CC(=O)c2c(N3CCNCC3)c(Cl)cc3c(=O)c(C(=O)O)cn1c23 (stereo not shown) [Compound 2, 9-Chloro-5-methyl-8-(1-piperazinyl)-6,7-dihydro-1,7-dioxo-1H,5H-benzo[ij]quinolizine-2-carboxylic acid] | 0.78 (≈ 2.08 µM) | 0.39 (≈ 1.04 µM) | 0.1 (≈ 0.266 µM) |  | 0.39 (≈ 1.04 µM) | 0.2 (≈ 0.532 µM) | 0.1 (≈ 0.266 µM) | 0.39 (≈ 1.04 µM) | 0.78 (≈ 2.08 µM) |  |  |  |  |  |  |
| CCC1CC(=O)c2c(N3CCN(C)CC3)c(F)cc3c(=O)c(C(=O)O)cn1c23 (stereo not shown) [Compound 6, 9-Fluoro-5-ethyl-8-(4-methyl-1-piperazinyl) -6,7-dihydro-1,7-dioxo-1H, 5H-benzo[ij]quinolizine-2-carboxylic acid] | 0.78 (≈ 2.01 µM) | 0.78 (≈ 2.01 µM) | 0.2 (≈ 0.516 µM) |  |  | 0.39 (≈ 1.01 µM) |  | 0.39 (≈ 1.01 µM) |  |  |  |  |  |  |  |
| CC1CC(=O)c2c(N3CCN(C)CC3)c(Cl)cc3c(=O)c(C(=O)O)cn1c23 (stereo not shown) [Compound 7, 9-Chloro-5-methyl-8-(4-methyl-1-piperazinyl)-6,7-dihydro-1,7-dioxo-1H, 5H-benzo[ij]quinolizine-2-carboxylic acid] | 0.2 (≈ 0.513 µM) | 0.1 (≈ 0.257 µM) | 0.1 (≈ 0.257 µM) | 1.56 (≈ 4 µM) | 0.39 (≈ 1 µM) | 0.1 (≈ 0.257 µM) | 0.1 (≈ 0.257 µM) | 0.1 (≈ 0.257 µM) | 0.78 (≈ 2 µM) | 0.78 (≈ 2 µM) | 3.13 (≈ 8.03 µM) |  |  |  |  |
| CC1CC(=O)c2c(N3CCN(CCO)CC3)c(F)cc3c(=O)c(C(=O)O)cn1c23 (stereo not shown) [Compound 12, 9-Fluoro-5-methyl-8-[4-(2-hydroxyethyl) -1-piperazinyl]-6,7-dihydro-1,7-dioxo-1H, 5H-benzo[ij]quinolizine-2-carboxylic acid] |  |  | 0.1 (≈ 0.248 µM) |  |  | 0.39 (≈ 0.967 µM) |  |  |  |  |  |  |  |  |  |
| CC1C=Cc2c(N3CCNCC3)c(F)cc3c(=O)c(C(=O)O)cn1c23 (stereo not shown) [Compound 20, 9-Fluoro-5-methyl-8-(1-piperazinyl) -1-oxo-1H, 5H-benzo[ij]quinolizine-2-carboxylic acid] | 0.78 (≈ 2.27 µM) | 0.39 (≈ 1.14 µM) | 0.2 (≈ 0.582 µM) |  | 0.78 (≈ 2.27 µM) | 0.2 (≈ 0.582 µM) | 0.2 (≈ 0.582 µM) |  | 3.13 (≈ 9.12 µM) | 0.78 (≈ 2.27 µM) | 3.13 (≈ 9.12 µM) |  |  |  |  |

Source: patent US4720495A, “Benzo[ij]quinolizine-2-carboxylic acids useful for treating bacterial infection” (priority 1985, dated 1988)
